Data from patent US20210262032A1, “DETERMINING RESPONDERS TO INFLAMMATION TREATMENT” (RAMBAM MED-TECH LTD., priority 2018, published 2021).

Experiments:
TNFα expression = experiment: Whole blood treated with Vedolizumab, LPA or combination; TNFα expression by qPCR; format: cell-based, human; settings: whole blood from healthy donors, 3 hours at 37 degrees, Vedolizumab 600 μg/ml, LPA 1 μM, fold-induction over untreated control
Protocol: FIGS. 11A-B: […] synergistic effect between Vedolizumab and LPA in-Vitro. (11A-B) Bar charts showing inflammatory cytokine expression including (11A) TNFα and (11B) IL-1β post incubation with Vedolizumab (600 μg/ml), LPA (1 μM) and co-incubation of the two substances, using qPCR for quantification. Un-treated whole blood basal expression served as control and values were expressed as fold-induction over control. Data were pooled from three independent experiments. Significance was calculated using Wilcoxon-test (two-sided; μ=1)
The combined effect of Vedolizumab and LPA was next tested on blood cells. Whole blood from healthy donors was treated with Vedolizumab, LPA or a combination for 3 hours at 37 degrees and pro-inflammatory cytokine expression was measured. Untreated whole blood was used as a control. […] This may be due to the fact that there are 6 LPA receptors and it appears that antagonism of only one of them is not sufficient to completely counter act the effect of the LPA.

IBD (UC and CD) patients = experiment: Primary clinical response to Vedolizumab in IBD patients, cohort 1; format: in vivo, human; settings: number of patients with 0—None / 1—partial / 2—full response; for clinical 2 w (0/1/2): 2 weeks; for clinical 14 w (0/1/2): 14 weeks; for clinical 26 w (0/1/2): 26 weeks; for clinical 52 w (0/1/2): 52 weeks
Source text: The exploratory study cohort consisted of 73 whole blood samples from 22 IBD (UC and CD) patients, who received Vedolizumab treatment at the Rambam Health Care Campus (RHCC) and met the study inclusion criteria. Patients that had past exposure to Vedolizumab, or patients who had active infection including febrile diseases or intra-abdominal or perianal abscess were excluded.
Samples were collected at the following time-points: pretreatment, 2 weeks and 14 weeks post first treatment and following one year of treatment for those patients who received long-term care. Patients were classified for response by clinical score after one-year follow-up and were clinically characterized as detailed in table 2.

[1] = tested on: Tregs in intestinal tissue; experiment: Estimated Treg proportion scores in intestinal tissue by xCell deconvolution of public dataset GEO73661; format: in vivo, human; settings: post-treatment vs baseline, xCell estimate from GEO73661
Protocol: Deconvolved estimated Tregs proportion scores in intestinal tissue and peripheral blood at baseline and in different time points post-treatment in responding and non-responding patients were evaluated usind xCell.
xCell, which is a computational deconvolution method based on ssGSEA enrichment of cell specific signatures for estimation of abundance scores of immune cell types from the gene expression data, was used. Only cells that had non-zero values in at least 75% of the samples were included.
Estimated cell proportions in intestinal tissue were tested using a publicly available dataset (GEO73661). […] Although Treg accumulation is observed in blood of non-responders, tissue Tregs are not reduced.

| Substance | TNFα expression (TNFα expression) | clinical 2 w (0/1/2) (IBD (UC and CD) patients; Non-responders (n = 10)) | clinical 14 w (0/1/2) (IBD (UC and CD) patients; Non-responders (n = 10)) | clinical 26 w (0/1/2) (IBD (UC and CD) patients; Non-responders (n = 10)) | clinical 52 w (0/1/2) (IBD (UC and CD) patients; Non-responders (n = 10)) | clinical 2 w (0/1/2) (IBD (UC and CD) patients; Responders (n = 12)) | clinical 14 w (0/1/2) (IBD (UC and CD) patients; Responders (n = 12)) | clinical 26 w (0/1/2) (IBD (UC and CD) patients; Responders (n = 12)) | clinical 52 w (0/1/2) (IBD (UC and CD) patients; Responders (n = 12)) | Tregs frequency in intestinal tissue ([1]; non-responders) | Tregs frequency in intestinal tissue ([1]; responding patients) |
| --- | --- | --- | --- | --- | --- | --- | --- | --- | --- | --- | --- |
| lysophosphatidic acid [LPA] | neither Vedolizumab nor LPA alone had an effect | – | – | – | – | – | – | – | – | – | – |
| Vedolizumab | neither Vedolizumab nor LPA alone had an effect | 5/5/0 | 7/2/1 | 8/2/0 | 10/0/0 | 1/7/0 | 1/5/2 | 0/4/5 | 0/0/12 | unaffected | reduces Tregs frequency |
